From US12661309B2, “Preparation and efficacy of tooth whitening tablet including SHMP” (The Hershey Company, priority 2018, dated 2026)

Assays:
[1] = Stain removal (ΔE whitening index) on pre-stained bovine enamel slabs
Procedure: Commercially available bovine enamel slabs were purchased from Theremetrics Inc. The slabs were prepared by immersing the enamel specimens in a staining broth containing coffee, tea and gastric mucin and air-drying the specimens. The gastric mucin (glycoprotein) was added to the straining broth to afford pellicle formation on the enamel surface. This mimics the dental pellicle formed by the glycoproteins present in the saliva. The broth immersion and air-drying procedure was repeated several times up to four days to afford a heavily-stained film containing the pellicle, as shown in FIG. 2.
Six treatments were performed with 3 bovine enamel slabs per treatment (2 medium stained and 1 heavy stained). The following treatment regimen was followed. The pre-stained enamel slabs were suspended in aqueous medium using a thin rod in a plastic container. […]
After the treatment, the solution was emptied and the slab was rinsed with DI water and wiped with paper towel. […] The whiteness index was measured using Xrite spectrophotometer (L*a b) at the end of 28 and 56 cycles or treatments. […]
The term ΔE, known as the whitening index value, represents the change in color difference from baseline measurements. The L* a* b* values were measured by Xrite spectrophotometer which was calibrated every time prior use. […] Using the L* a* b* values, ΔE was calculated according to the formula as shown below. […]
The three phosphate buffer solutions (pH 5.8, 7.0, 8.0) were prepared using 0.2M NaH2PO4 and 0.2M Na2HPO4. […] The L* a* b* measurements were measured by Xrite spectrophotometer and digital images were taken at baseline, 28 cycles and at end of 56 cycles.
Artificial saliva was used as the medium for this example. […] The L* a* b* measurements were measured by Xrite spectrophotometer and digital images were taken at baseline, after 28 cycles and after 56 cycles.
Artificial saliva was used as the medium for Example 4. […] The L* a* b* measurements were measured by Xrite spectrophotometer and digital images were taken at baseline, after 28 treatment cycles and after 56 treatment cycles.

[2] = hydrolyze to form orthophosphates; cited from earlier work

Structure (SMILES) | stain removal, ingredient only vs tableted forms (Codes H, L & D) ([1]; Example 1, specifically heavy stains) | stability in acidic environments [2] | relationship between SHMP concentration and stain removal efficacy ΔE values ([1]; Example 3, 0-8% SHMP tablets, medium stained slabs, artificial saliva) | reduction of whitening efficacy ([1]; Example 3, dropping SHMP level in tablet from 8% to 5%, artificial saliva)
O=P1([O-])OP(=O)([O-])OP(=O)([O-])OP(=O)([O-])OP(=O)([O-])OP(=O)([O-])O1.[Na+].[Na+].[Na+].[Na+].[Na+].[Na+] [Code B, sodium hexametaphosphate] | performed better than tableted forms |  |  | 
O=P1([O-])OP(=O)([O-])OP(=O)([O-])OP(=O)([O-])OP(=O)([O-])OP(=O)([O-])O1.[Na+].[Na+].[Na+].[Na+].[Na+].[Na+] [SHMP, sodium hexametaphosphate] |  | not stable | linear relationship | 32%
